Test results: US9828644B2, “BACH2 repression in cells” (UNIVERSITE LIBRE DE BRUXELLES, priority 2010, dated 2017)

How the values were obtained:
[1] = tested on: shRNA BACH2 Jurkat clones (E6.1 Jurkat T cell line); assay: Apoptosis assay (annexin V-FITC and PI staining, flow cytometry) in shRNA BACH2 Jurkat clones; type: cell-based; conditions: for Apoptosis response % shRNABACH2: shRNA BACH2 Jurkat clones; for Apoptosis response Difference %: shRNACTRL minus shRNABACH2 Jurkat clones
Method: (§1) The apoptosis was assessed by flow cytometry. Columns with standard deviation represent the mean percentage of 3 experiments.
(§2) Histograms of gated cells represent early and late apoptotic populations. As shown in the left panel, 42% of treated shRNA CTRL cells are in apoptosis whereas 18% of apoptotic shRNA BACH2 cells are observed after BACH2 repression
(§3) The inventors firstly added FAS ligand (FASLG/TNFSF6) or PMA (phorbol myristic acetate) (see Table 2) to control or to cells transfected with BACH2 sh RNA. They further treated control and transfected cells (with BACH2 sh RNA) by a 18-hours stimulation with anti-CD2, anti-CD28 or anti-CD3 antibodies.

[2] = tested on: Fas L mRNA in CD4+ cells from a patient having a hemizigous deletion of BACH2 gene; assay: Fas L mRNA abundance in CD4+ cells ex vivo in function of etoposide treatment; type: cell-based, human; conditions: CD4+ cells having lost one copy of BACH2, compared with control CD4+ cells from a healthy donor
Description: This observation is further confirmed by the ex-vivo analysis shown at FIG. 8, wherein, clearly, CD4+ T cells having hemizigous BACH2 fail to express FasL mRNA.

[3] = tested on: shRNA CTRL Jurkat clones (E6.1 Jurkat T cell line); assay: Apoptosis assay (annexin V-FITC and PI staining, flow cytometry) in shRNA CTRL Jurkat clones; type: cell-based; conditions: for Apoptosis response % shRNACTRL: shRNA CTRL Jurkat clones
Method: as §1, §2, §3

| Molecule | reduction in the number of apoptotic cells (AnnexinV+) in the BACH2-repressed clone ([1]; clone shRNA BACH2-C versus shRNA control-A, 1 μg/ml of etoposide) | apoptotic cells (early and late apoptotic populations) ([1]; clone shRNA BACH2-C, 1 μg/ml etoposide, 18 hrs) [%] | Apoptosis response % shRNABACH2 [1] | Apoptosis response Difference % [1] [%] | FasL mRNA production upon etoposide exposure [2] | cells in apoptosis (early and late apoptotic populations) ([3]; clone shRNA CTRL-A, 1 μg/ml etoposide, 18 hrs) [%] | Apoptosis response % shRNACTRL [3] |
| --- | --- | --- | --- | --- | --- | --- | --- |
| COc1cc([C@@H]2c3cc4c(cc3[C@@H](O[C@@H]3O[C@@H]5CO[C@@H](C)O[C@H]5[C@H](O)[C@H]3O)[C@H]3COC(=O)[C@H]23)OCO4)cc(OC)c1O [Etoposide] | two-fold reduction | 18 | 18.27 (+/−2.71) % | 23 | fails to produce FasL | 42 | 41.2 (+/−4.94) % |
| CCCCCCCCCCCCCC(=O)O[C@@H]1[C@@H](C)[C@@]2(O)[C@@H](C=C(CO)C[C@]3(O)C(=O)C(C)=C[C@@H]23)[C@@H]2C(C)(C)[C@]12OC(C)=O [PMA, phorbol myristic acetate] | – | – | 16.7 (+/−6.12) % | −0.5 | – | – | 16.17 (+/−2.26) % |
| Fas-L: FAS ligand (FASLG/TNFSF6) added to Jurkat clones to trigger apoptosis (protein, UniProt P48023 130-281, looked up) Tumor necrosis factor ligand …: QIGHPSPPPEKKELRKVAHLTGKSNSRSMPLEWEDTYGIVLLSGVKYKKGGLVINETGLYFVYSKVYFRGQSCNNLPLSHKVYMRNSKYPQDLVMMEGKMMSYCTTGQMWARSSYLGAVFNLTSADHLYVNVSELSLVNFEESQTFFGLYKL | – | – | 34.51 (+/−3.75) % | −1.3 | – | – | 33.18 (+/−2.32) % |
